From ChEMBL document CHEMBL3885861, “Open TG-GATES”

Species: Rattus norvegicus
Experiment: Open TG-GATES - Regimen: Daily Repeat
Assay type: toxicity, organism-based, Sprague-Dawley
Design: regimen Daily Repeat, gender Male, age 6 weeks
Details: in vivo, po, route gavage; for APTT / Bas / Eos / Fbg / Hb / Ht / Lym / MCH / MCHC / MCV / Mono / Neu / PT / Plat / RBC / Ret / WBC: tissue Blood; for KIDNEY_L / KIDNEY_R / KIDNEY_TOTAL: tissue Kidney; for LIVER: tissue Liver
[1] = 0 mg/kg, […], tissue Plasma, dose level Control, time 28 day
[2] = 100 mg/kg, 72 h, dose level Low, time 3 day
[3] = 100 mg/kg, 72 h, tissue Plasma, dose level Low, time 3 day
[4] = 100 mg/kg, […], dose level Low, time 7 day
[5] = 100 mg/kg, […], dose level Low, time 14 day
[6] = 100 mg/kg, […], dose level Low, time 28 day
[7] = 100 mg/kg, […], tissue Plasma, dose level Low, time 7 day
[8] = 100 mg/kg, […], tissue Plasma, dose level Low, time 14 day
[9] = 100 mg/kg, […], tissue Plasma, dose level Low, time 28 day

O=C(O)c1ccccc1Nc1ccccc1 [FENAMIC ACID]
RALB [1]: 2.8 g/dL | TBIL [1]: 0.05 mg/dL | TC [1]: 64.8 mg/dL | TG [1]: 134.8 mg/dL | TP [1]: 6.2 g/dL | gamma-GTP [1]: 1 IU/L | TERMINAL_BW [2]: 236.5 g | APTT [2]: 15.6 s | Bas [2]: 0.6% | Eos [2]: 1% | Fbg [2]: 286.4 mg/dL | Hb [2]: 13.5 g/dL | Ht [2]: 40.5% | Lym [2]: 79.6% | MCH [2]: 20.9 pg | MCHC [2]: 33.4% | MCV [2]: 62.6 fL | Mono [2]: 2% | Neu [2]: 16.8% | PT [2]: 14.2 s | Plat [2]: 122.4 x10_4/uL | RBC [2]: 647.6 x10_4/ul | Ret [2]: 7.2% | WBC [2]: 82.6 x10_2/uL | KIDNEY_L [2]: 1 g | KIDNEY_R [2]: 1 g | KIDNEY_TOTAL [2]: 2 g | LIVER [2]: 11.2 g | A/G [3]: 0.9 | ALP [3]: 1990.6 IU/L | ALT [3]: 37.6 IU/L | AST [3]: 64.2 IU/L | BUN [3]: 13.8 mg/dL | CRE [3]: 0.2 mg/dL | Ca [3]: 11.7 mg/dL | Cl [3]: 106.2 meq/L | GLC [3]: 184.4 mg/dL | IP [3]: 6.9 mg/dL | K [3]: 4.2 meq/L | LDH [3]: 82 IU/L | Na [3]: 143.6 meq/L | PL [3]: 144.2 mg/dL | RALB [3]: 2.7 g/dL | TC [3]: 75.6 mg/dL | TG [3]: 72.2 mg/dL | TP [3]: 5.6 g/dL | gamma-GTP [3]: 1.2 IU/L | TERMINAL_BW [4]: 277.8 g | TERMINAL_BW [5]: 337.7 g | TERMINAL_BW [6]: 419.6 g | APTT [4]: 16 s | Bas [4]: 0.6% | Eos [4]: 1% | Fbg [4]: 288.2 mg/dL | Hb [4]: 13.4 g/dL | Ht [4]: 39.6% | Lym [4]: 73% | MCH [4]: 20.9 pg | MCHC [4]: 33.9% | MCV [4]: 61.5 fL | Mono [4]: 2.6% | Neu [4]: 22.8% | PT [4]: 13.9 s | Plat [4]: 114.4 x10_4/uL | RBC [4]: 642.8 x10_4/ul | Ret [4]: 5.7% | WBC [4]: 82.6 x10_2/uL | APTT [5]: 16.8 s | Bas [5]: 0.8% | Eos [5]: 1% | Fbg [5]: 308.8 mg/dL | Hb [5]: 14.4 g/dL | Ht [5]: 41.6% | Lym [5]: 75.4% | MCH [5]: 20.8 pg | MCHC [5]: 34.5% | MCV [5]: 60.3 fL | Mono [5]: 2.4% | Neu [5]: 20.2% | PT [5]: 13.7 s | Plat [5]: 118.3 x10_4/uL | RBC [5]: 689.4 x10_4/ul | Ret [5]: 4.5% | WBC [5]: 82.2 x10_2/uL | APTT [6]: 17.2 s | Bas [6]: 0.2% | Eos [6]: 1% | Fbg [6]: 305.2 mg/dL | Hb [6]: 15.1 g/dL | Ht [6]: 43.9% | Lym [6]: 78.2% | MCH [6]: 19.4 pg | MCHC [6]: 34.5% | MCV [6]: 56.2 fL | Mono [6]: 2% | Neu [6]: 18% | PT [6]: 14.3 s | Plat [6]: 103.7 x10_4/uL | RBC [6]: 780.8 x10_4/ul | Ret [6]: 2.6% | WBC [6]: 94 x10_2/uL | KIDNEY_L [4]: 1.2 g | KIDNEY_R [4]: 1.2 g | KIDNEY_TOTAL [4]: 2.3 g | KIDNEY_L [5]: 1.3 g | KIDNEY_R [5]: 1.2 g | KIDNEY_TOTAL [5]: 2.5 g | KIDNEY_L [6]: 1.5 g | KIDNEY_R [6]: 1.5 g | KIDNEY_TOTAL [6]: 3 g | LIVER [4]: 13 g | LIVER [5]: 14.7 g | LIVER [6]: 16.7 g | A/G [7]: 0.9 | ALP [7]: 1790.8 IU/L | ALT [7]: 37 IU/L | AST [7]: 63.4 IU/L | BUN [7]: 13.4 mg/dL | CRE [7]: 0.2 mg/dL | Ca [7]: 11.4 mg/dL | Cl [7]: 105.6 meq/L | GLC [7]: 182 mg/dL | IP [7]: 6.8 mg/dL | K [7]: 4.3 meq/L | LDH [7]: 94.6 IU/L | Na [7]: 142.8 meq/L | PL [7]: 160.6 mg/dL | RALB [7]: 2.7 g/dL | TC [7]: 80.2 mg/dL | TG [7]: 136.8 mg/dL | TP [7]: 5.8 g/dL | gamma-GTP [7]: 1 IU/L | A/G [8]: 0.9 | ALP [8]: 1703.6 IU/L | ALT [8]: 35.6 IU/L | AST [8]: 63.6 IU/L | BUN [8]: 14.2 mg/dL | CRE [8]: 0.3 mg/dL | Ca [8]: 11.1 mg/dL | Cl [8]: 105.2 meq/L | GLC [8]: 179.4 mg/dL | IP [8]: 7 mg/dL | K [8]: 4.2 meq/L | LDH [8]: 95 IU/L | Na [8]: 143.4 meq/L | PL [8]: 158.4 mg/dL | RALB [8]: 2.7 g/dL | TC [8]: 80.8 mg/dL | TG [8]: 109.2 mg/dL | TP [8]: 5.8 g/dL | gamma-GTP [8]: 1 IU/L | A/G [9]: 0.8 | ALP [9]: 1187.4 IU/L | ALT [9]: 33.4 IU/L | AST [9]: 59.2 IU/L | BUN [9]: 14.2 mg/dL | CRE [9]: 0.3 mg/dL | Ca [9]: 11 mg/dL | Cl [9]: 105.6 meq/L | GLC [9]: 179.6 mg/dL | IP [9]: 6.5 mg/dL | K [9]: 3.9 meq/L | LDH [9]: 87 IU/L | Na [9]: 144.6 meq/L | PL [9]: 154.2 mg/dL | RALB [9]: 2.8 g/dL
